Measured values taken from patent publication US9751887B2, “Imidazo[1,2-b]pyridazine derivatives as kinase inhibitors” (Daiichi Sankyo Company, Limited, priority 2012, dated 2017).

How the values were obtained:
NTRK2 = molecular target: T1, NTRK2 (Homo sapiens, UniProt Q16620); experiment: NTRK kinase enzyme inhibitory activity evaluation, NTRK2; assay type: biochemical; conditions: FL-Peptide 27 substrate, ATP Km=63 μM, three separate measurements
T1 construct: purchased Carna Biosciences 08-187
Description: (§1) NTRK1, NTRK2, and NTRK3 kinase solutions were each prepared. […]; Next, a substrate reaction solution was prepared.
(§2) Subsequently, a reaction stop solution was prepared. The composition is as follows: 100 mM HEPES (pH 7.4), 0.015% Brij-35, 40 mM EDTA, and 0.1% Coating Reagent 3 (Caliper Life Sciences #760050).
(§3) The NTRK1, NTRK2, and NTRK3 kinase solutions were each added at a concentration of 19 μL/well to a 96-well plate. Each compound for evaluation dissolved in DMSO to achieve each final concentration was added to the plate, mixed using a plate mixer, and then preincubated at room temperature for 20 minutes. […] Then, the reaction stop solution was added thereto at a concentration of 40 μL/well. Substrate phosphorylation intensity was measured using EZ Reader II (Caliper Life Sciences). IC50 values were calculated by curve fitting using Microsoft Excel 2010 on the basis of data obtained from three separate measurements.

NTRK1 = molecular target: T2, NTRK1 (Homo sapiens, UniProt P04629); experiment: NTRK kinase enzyme inhibitory activity evaluation, NTRK1; assay type: biochemical; conditions: FL-Peptide 27 substrate, ATP Km=33 μM, three separate measurements
T2 construct: purchased Carna Biosciences 08-186
Description: as §1, §2, §3

[1] = system: HCC78 cells having ROS1 fusion gene; experiment: HCC78 cell growth assay (CellTiter-Glo); assay type: cell-based; conditions: Homo sapiens, HCC78, 72 h, 72 hours culture, 2% FBS medium, luminescence, four separate measurements; read-out: growth inhibitory effect on HCC78 cells having ROS1 fusion gene IC50
NTRK3 = molecular target: T3, NTRK3 (Homo sapiens, UniProt Q16288); experiment: NTRK kinase enzyme inhibitory activity evaluation, NTRK3; assay type: biochemical; conditions: FL-Peptide 27 substrate, ATP Km=32 μM, three separate measurements
T3 construct: purchased Carna Biosciences 08-197
Description: as §1, §2, §3

ROS1 [2] = molecular target: T4, ROS1 (Homo sapiens, UniProt P08922); experiment: ROS1 kinase inhibitory activity evaluation (mobility shift, EZ Reader II); assay type: biochemical; conditions: ROS1 25 pg/μL, FL-Peptide 22 substrate, three separate measurements
T4 construct: purchased Carna Biosciences 08-163
Description: Next, a substrate reaction solution was prepared. […] Then, the reaction stop solution was added thereto at a concentration of 40 μL/well. Substrate phosphorylation intensity was measured using EZ Reader II (Caliper Life Sciences).

ROS1 [3] = molecular target: T4, ROS1; experiment: ROS1 autophosphorylation inhibitory activity evaluation (ADP-Glo); assay type: biochemical; conditions: 200 nM inactive ROS1, ATP 1 mM, 25° C. 1.5 hours, ADP generated, four separate measurements
Outline: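 IC50 was derived by curve fitting of ADP output measured with ADP-Glo reagents. The output reflects ROS1 self-phosphorylation over 1.5 hours at 25° C. Buffer was HEPES pH 7.5 with MgCl2, Brij-58 and DTT, and ATP was 1 mM final.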

T2 sequence (P04629 33-796): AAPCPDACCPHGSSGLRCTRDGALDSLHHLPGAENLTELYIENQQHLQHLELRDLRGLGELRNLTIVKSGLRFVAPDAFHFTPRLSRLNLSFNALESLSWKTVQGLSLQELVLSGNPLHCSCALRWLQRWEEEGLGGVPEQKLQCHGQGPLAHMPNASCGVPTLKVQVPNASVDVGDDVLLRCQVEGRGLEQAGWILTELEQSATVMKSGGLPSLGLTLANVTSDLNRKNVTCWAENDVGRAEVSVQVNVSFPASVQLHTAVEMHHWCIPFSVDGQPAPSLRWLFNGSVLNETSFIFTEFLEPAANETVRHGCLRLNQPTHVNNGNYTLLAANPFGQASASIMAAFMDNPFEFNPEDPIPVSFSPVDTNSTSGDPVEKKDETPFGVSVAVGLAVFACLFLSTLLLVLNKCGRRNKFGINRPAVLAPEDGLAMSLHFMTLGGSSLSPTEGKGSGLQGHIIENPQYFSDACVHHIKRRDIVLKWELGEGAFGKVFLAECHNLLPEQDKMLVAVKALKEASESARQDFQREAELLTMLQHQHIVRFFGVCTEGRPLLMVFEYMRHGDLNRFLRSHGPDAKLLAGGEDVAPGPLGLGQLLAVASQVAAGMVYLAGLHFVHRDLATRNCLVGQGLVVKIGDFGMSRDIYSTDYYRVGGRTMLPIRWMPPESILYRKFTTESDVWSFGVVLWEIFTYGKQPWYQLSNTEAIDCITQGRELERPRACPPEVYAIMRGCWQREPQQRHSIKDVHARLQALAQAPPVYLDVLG
T3 sequence (Q16288 32-839): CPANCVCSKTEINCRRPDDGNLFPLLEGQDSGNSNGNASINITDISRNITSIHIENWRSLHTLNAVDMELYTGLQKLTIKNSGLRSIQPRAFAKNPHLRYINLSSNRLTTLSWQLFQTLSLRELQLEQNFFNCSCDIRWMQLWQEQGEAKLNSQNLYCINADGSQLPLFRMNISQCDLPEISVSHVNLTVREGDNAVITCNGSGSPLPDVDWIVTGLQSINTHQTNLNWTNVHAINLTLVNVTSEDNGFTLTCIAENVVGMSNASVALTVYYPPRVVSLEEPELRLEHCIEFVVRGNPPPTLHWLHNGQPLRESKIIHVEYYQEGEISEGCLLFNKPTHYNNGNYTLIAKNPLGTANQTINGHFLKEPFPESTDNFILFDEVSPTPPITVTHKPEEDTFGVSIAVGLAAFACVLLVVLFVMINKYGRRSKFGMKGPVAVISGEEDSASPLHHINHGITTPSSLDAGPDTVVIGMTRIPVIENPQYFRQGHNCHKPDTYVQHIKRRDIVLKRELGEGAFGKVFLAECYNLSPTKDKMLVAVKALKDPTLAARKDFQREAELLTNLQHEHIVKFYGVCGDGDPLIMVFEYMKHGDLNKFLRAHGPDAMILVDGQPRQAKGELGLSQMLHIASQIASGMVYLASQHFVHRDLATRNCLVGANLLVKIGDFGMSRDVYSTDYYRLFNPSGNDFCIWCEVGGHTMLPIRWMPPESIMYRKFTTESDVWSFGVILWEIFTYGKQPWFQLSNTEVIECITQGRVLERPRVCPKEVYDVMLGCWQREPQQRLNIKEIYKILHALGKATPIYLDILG
T1 sequence (Q16620 32-822): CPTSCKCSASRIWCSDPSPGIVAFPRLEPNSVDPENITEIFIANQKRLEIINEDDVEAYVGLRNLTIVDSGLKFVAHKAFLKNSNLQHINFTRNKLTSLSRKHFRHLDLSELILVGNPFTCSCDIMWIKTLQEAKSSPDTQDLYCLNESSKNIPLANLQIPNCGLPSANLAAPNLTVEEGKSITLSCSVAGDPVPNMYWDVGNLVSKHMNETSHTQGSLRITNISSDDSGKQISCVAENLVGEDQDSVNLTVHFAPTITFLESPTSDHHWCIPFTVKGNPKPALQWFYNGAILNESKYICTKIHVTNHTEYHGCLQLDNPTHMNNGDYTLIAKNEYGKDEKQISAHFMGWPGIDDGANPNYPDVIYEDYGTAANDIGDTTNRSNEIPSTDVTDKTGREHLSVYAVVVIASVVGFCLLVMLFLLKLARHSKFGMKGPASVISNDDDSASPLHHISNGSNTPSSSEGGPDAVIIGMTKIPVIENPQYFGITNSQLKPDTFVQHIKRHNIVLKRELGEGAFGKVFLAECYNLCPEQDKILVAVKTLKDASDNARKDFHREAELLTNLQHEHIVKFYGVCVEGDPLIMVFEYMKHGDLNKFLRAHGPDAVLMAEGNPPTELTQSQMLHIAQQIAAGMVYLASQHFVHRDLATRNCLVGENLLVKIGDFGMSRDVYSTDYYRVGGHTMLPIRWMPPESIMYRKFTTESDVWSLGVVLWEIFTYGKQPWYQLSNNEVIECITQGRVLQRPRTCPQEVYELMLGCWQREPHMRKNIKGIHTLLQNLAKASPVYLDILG
T4 sequence (P08922 28-2347): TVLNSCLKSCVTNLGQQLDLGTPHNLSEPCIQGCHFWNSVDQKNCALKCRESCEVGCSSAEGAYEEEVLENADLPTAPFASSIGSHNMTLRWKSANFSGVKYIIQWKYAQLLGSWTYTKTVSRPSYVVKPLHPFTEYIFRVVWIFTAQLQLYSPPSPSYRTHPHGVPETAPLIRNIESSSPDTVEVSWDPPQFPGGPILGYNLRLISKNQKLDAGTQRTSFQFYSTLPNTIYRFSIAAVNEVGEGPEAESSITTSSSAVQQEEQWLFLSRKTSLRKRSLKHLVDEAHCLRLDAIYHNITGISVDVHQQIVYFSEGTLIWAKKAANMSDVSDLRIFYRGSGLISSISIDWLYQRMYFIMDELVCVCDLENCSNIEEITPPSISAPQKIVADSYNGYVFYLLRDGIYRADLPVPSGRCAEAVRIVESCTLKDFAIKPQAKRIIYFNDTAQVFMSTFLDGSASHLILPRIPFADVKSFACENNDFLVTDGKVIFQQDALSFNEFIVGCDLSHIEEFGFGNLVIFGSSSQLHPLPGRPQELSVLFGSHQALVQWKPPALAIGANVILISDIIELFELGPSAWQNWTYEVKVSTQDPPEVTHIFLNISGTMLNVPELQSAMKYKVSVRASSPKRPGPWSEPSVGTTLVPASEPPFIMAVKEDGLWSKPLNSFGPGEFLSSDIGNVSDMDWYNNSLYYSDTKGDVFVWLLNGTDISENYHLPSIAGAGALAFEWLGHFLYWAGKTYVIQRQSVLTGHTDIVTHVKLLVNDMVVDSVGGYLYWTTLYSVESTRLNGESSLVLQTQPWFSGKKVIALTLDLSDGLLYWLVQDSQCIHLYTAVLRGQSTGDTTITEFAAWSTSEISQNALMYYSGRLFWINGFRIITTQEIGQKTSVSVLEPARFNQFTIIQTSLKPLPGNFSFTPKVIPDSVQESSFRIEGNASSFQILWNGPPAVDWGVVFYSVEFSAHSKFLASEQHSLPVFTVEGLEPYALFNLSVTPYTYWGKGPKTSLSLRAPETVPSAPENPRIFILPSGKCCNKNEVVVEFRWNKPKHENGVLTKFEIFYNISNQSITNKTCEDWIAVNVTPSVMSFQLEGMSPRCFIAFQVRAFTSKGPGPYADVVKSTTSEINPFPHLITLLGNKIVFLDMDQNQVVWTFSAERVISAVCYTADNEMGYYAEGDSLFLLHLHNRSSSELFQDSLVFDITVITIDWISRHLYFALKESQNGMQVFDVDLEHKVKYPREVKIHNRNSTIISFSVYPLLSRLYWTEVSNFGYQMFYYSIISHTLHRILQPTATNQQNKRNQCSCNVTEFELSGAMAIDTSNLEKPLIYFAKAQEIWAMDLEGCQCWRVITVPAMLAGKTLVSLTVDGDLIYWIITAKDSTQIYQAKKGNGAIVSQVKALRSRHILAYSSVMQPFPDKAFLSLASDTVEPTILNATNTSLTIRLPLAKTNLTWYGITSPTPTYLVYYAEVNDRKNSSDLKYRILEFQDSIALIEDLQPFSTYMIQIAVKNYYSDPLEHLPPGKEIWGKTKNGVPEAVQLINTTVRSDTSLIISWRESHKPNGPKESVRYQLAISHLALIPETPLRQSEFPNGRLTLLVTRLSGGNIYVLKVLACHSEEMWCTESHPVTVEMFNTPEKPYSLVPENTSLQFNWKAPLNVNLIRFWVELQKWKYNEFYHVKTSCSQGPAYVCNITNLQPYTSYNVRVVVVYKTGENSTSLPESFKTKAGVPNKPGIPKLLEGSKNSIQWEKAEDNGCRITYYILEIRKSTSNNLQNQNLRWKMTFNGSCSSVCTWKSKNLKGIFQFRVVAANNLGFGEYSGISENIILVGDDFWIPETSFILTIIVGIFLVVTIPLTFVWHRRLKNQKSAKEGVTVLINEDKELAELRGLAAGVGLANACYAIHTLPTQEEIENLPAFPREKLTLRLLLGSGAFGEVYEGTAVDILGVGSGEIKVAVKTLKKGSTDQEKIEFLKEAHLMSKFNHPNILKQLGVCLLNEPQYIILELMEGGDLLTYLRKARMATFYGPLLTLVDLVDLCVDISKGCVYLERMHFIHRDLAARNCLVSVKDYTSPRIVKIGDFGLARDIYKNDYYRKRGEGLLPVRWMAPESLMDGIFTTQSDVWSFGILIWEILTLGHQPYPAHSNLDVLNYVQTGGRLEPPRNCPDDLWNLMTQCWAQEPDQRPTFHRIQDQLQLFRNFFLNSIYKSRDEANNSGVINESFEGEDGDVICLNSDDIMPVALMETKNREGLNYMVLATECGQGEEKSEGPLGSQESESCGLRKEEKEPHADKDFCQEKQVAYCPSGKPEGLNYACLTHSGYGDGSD

SMILES	IC50 (NTRK2)	IC50 (NTRK1)	IC50 [1]	IC50 (NTRK3)	IC50 (ROS1 [2])	IC50 (ROS1 [3])
C[C@@H](Nc1ccc2ncc(-c3ccc(OC[C@@H]4CCCN4)cc3)n2n1)c1cccc(F)c1 [Example 24, N-[(1R)-1-(3-Fluorophenyl)ethyl]-3-[4-[[(2S)-pyrrolidin-2-yl]methoxy]phenyl]imidazo[1,2-b]pyridazin-6-amine]	< 10 nM	< 5 nM	20 to 100 nM	< 5 nM	< 1 nM	< 20 nM
CNCCOc1ccc(-c2cnc3ccc(N[C@H](C)c4cccc(F)c4)nn23)cc1 [Example 29, N-[(1R)-1-(3-Fluorophenyl)ethyl]-3-[4-[2-(methylamino)ethoxy]phenyl]imidazo[1,2-b]pyridazin-6-amine]	< 10 nM	< 5 nM	< 20 nM	< 5 nM	< 1 nM	< 20 nM
C[C@@H](Oc1ccc2ncc(-c3ccc(N4C[C@@H](N)CC4=O)nc3)n2n1)c1cccc(F)c1 [Example 127, (4S)-4-Amino-1-[5-[6-[(1R)-1-(3-fluorophenyl)ethoxy]imidazo[1,2-b]pyridazin-3-yl]-2-pyridyl]pyrrolidin-2-one]	20 to 25 nM	10 to 15 nM	20 to 100 nM	5 to 10 nM	< 1 nM	< 20 nM
CN(Cc1cccc(F)c1)c1ccc2ncc(-c3ccc(N4C[C@@H](N)CC4=O)cc3)n2n1 [Example 81, (4S)-4-Amino-1-[4-[6-[(3-fluorophenyl)methyl-methylamino]imidazo[1,2-b]pyridazin-3-yl]phenyl]pyrrolidin-2-one]	< 10 nM	< 5 nM	< 20 nM	< 5 nM	< 1 nM	< 20 nM
COc1cc(N2C[C@@H](N)CC2=O)ccc1-c1cnc2ccc(N(C)Cc3cccc(F)c3)nn12 [Example 85, (4S)-4-Amino-1-[4-[6-[(3-fluorophenyl)methyl-methylamino]imidazo[1,2-b]pyridazin-3-yl]-3-methoxyphenyl]pyrrolidin-2-one]	< 10 nM	< 5 nM	20 to 100 nM	< 5 nM	1 to 10 nM	< 20 nM
C[C@@H](Nc1ccc2ncc(-c3ccc(N4C[C@@H](N)CC4=O)cc3)n2n1)c1cccc(F)c1 [Example 90, (4S)-4-Amino-1-[4-[6-[[(1R)-1-(3-fluorophenyl)ethyl]amino]imidazo[1,2-b]pyridazin-3-yl]phenyl]pyrrolidin-2-one]	< 10 nM	< 5 nM	< 20 nM	< 5 nM	< 1 nM	< 20 nM
C[C@@H](N)COc1ccc(-c2cnc3ccc(N[C@H](C)c4cccc(F)c4)nn23)cc1 [Example 21, 3-[4-[(2R)-2-Aminopropoxy]phenyl]-N-[(1R)-1-(3-fluorophenyl)ethyl]imidazo[1,2-b]pyridazin-6-amine]	< 10 nM	< 5 nM	< 20 nM	< 5 nM		
C[C@H](N)COc1ccc(-c2cnc3ccc(N[C@H](C)c4cccc(F)c4)nn23)cc1 [Example 41, 3-[4-[(2S)-2-Aminopropoxy]phenyl]-N-[(1R)-1-(3-fluorophenyl)ethyl]imidazo[1,2-b]pyridazin-6-amine]	< 10 nM	< 5 nM	< 20 nM	< 5 nM		
C[C@@H](Nc1ccc2ncc(-c3ccc(OC[C@@H]4CCN4)cc3)n2n1)c1cccc(F)c1 [Example 30, 3-[4-[[(2S)-Azetidin-2-yl]methoxy]phenyl]-N-[(1R)-1-(3-fluorophenyl)ethyl]imidazo[1,2-b]pyridazin-6-amine]	< 10 nM	< 5 nM	< 20 nM	< 5 nM	< 1 nM	< 20 nM
C[C@@H](Oc1ccc2ncc(-c3ccc(N4C[C@@H](N)CC4=O)cc3)n2n1)c1cccc(F)c1 [Example 79, (4S)-4-Amino-1-[4-[6-[(1R)-1-(3-fluorophenyl)ethoxy]imidazo[1,2-b]pyridazin-3-yl]phenyl]pyrrolidin-2-one]	< 10 nM	< 5 nM	< 20 nM	< 5 nM	< 1 nM	
